IC50, efflux ratio and Papp A→B data for five compounds are collected here from patent publication US20240059675A1, “PIPERIDINYLPYRIDINYLCARBONITRILE DERIVATIVES AS INHIBITORS OF GLUTAMINYL-PEPTIDE CYCLOTRANSFERASE AND GLUTAMINYL-PEPTIDE CYCLOTRANSFERASE LIKE PROTEIN” (Boehringer Ingelheim International GmbH, priority 2022, published 2024).

In data set [1] the test system is SIRPα signalling induced by A549 cells. Briefly: Assay B: SIRPα signalling assay using A549 cells. It counts as cell-based. The note with it: Homo sapiens, 48 h compound incubation, Jurkat PathHunter SIRPαV1 reporter cells, read-out: Inhibition of SIRPα signalling induced by A549 cells: IC50. How it is done: (§1) Two cell types are independently used: the Raji cell line (lymphoblast-like human cell line derived from B lymphocytes from a Burkitt's lymphoma patient in 1963) and A549 cells (adenocarcinomic human alveolar basal epithelial cells).
(§2) Test compounds were dissolved in 100% DMSO and serially diluted into a white 384-well microtiter cell culture plate (PerkinElmer #60076780 in case of Raji assay; PDL-coated plates Greiner #781945 in case of A549 assay). 5000 Raji cells (ATCC #CC86) or 5000 A549 cells (ATCC #CCL-185) in Assay Complete Cell Plating reagent 30 (DiscoverX 93-0563R30B) were added per well. The assay plate was incubated for 48 h at 37° C., 95% humidity and 5% CO2. 15000 reporter cells (Jurkat PathHunter SIRPαV1, DiscoverX #93-1135C19) were added to each well, and the plate was incubated for 5 h at 37° C., 95% humidity and 5% CO2. Bioassay reagent 1 of the PathHunter Bioassay detection kit (DiscoverX 93-0001) was added to each well of the plate using a multichannel pipette followed by a 15 min incubation at room temperature. Afterwards bioassay reagent 2 was added followed by 60 min incubation at room temperature (incubation in the dark).
(§3) The analysis of the data was performed using the luminescence signal generated by beta-galactosidase in the PathHunter reporter cell line. The luminescence measurement was done using a Pherastar Multi-Mode Reader. Dose-response curves & IC50 data were calculated with 4-parameter sigmoidal dose response formula.

A further data set concerns the target QPCT (Homo sapiens (Human), UniProt Q16769). Briefly: Assay A: biochemical QPCT activity assay (MALDI-TOF MS, CD47 peptide substrate). The note with it: 0.5 nM enzyme, 20 μM CD47 peptide substrate; read-out: Inhibition of QPCT: IC50.
The next data set addresses QPCTL (Homo sapiens (Human), UniProt Q9NXS2). Briefly: Assay A: biochemical QPCTL activity assay (MALDI-TOF MS, CD47 peptide substrate). The note with it: 0.5 nM enzyme, 10 μM CD47 peptide substrate; read-out: Inhibition of QPCTL: IC50.
Data set [2] in a line: Assay C: permeability in CACO-2 cells. The format is in vitro ADME. The note with it: human, pH 7.2; for efflux ratio: Caco-2, permeability B-A / permeability A-B; for Papp A→B: Caco-2, apical to basolateral.
Data set [3] deals with SIRPα signalling induced by Raji cells. Briefly: Assay B: SIRPα signalling assay using Raji cells. The note with it: Homo sapiens, 48 h compound incubation, Jurkat PathHunter SIRPαV1 reporter cells, read-out: Inhibition of SIRPα signalling induced by Raji cells: IC50. The format is cell-based. On the procedure:
as §1, §2, §3

Chain of QPCTL (Q9NXS2 whole entry): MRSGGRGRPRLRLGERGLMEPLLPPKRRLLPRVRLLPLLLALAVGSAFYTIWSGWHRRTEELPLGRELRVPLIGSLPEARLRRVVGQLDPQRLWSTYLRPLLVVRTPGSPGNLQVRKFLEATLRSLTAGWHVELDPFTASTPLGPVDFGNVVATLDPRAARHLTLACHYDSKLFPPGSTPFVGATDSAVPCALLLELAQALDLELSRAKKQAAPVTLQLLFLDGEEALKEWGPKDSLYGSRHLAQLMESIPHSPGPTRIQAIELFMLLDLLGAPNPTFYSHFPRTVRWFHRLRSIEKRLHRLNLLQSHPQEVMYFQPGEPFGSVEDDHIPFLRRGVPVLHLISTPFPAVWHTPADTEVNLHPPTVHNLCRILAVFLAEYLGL
Chain of QPCT (Q16769 29-361): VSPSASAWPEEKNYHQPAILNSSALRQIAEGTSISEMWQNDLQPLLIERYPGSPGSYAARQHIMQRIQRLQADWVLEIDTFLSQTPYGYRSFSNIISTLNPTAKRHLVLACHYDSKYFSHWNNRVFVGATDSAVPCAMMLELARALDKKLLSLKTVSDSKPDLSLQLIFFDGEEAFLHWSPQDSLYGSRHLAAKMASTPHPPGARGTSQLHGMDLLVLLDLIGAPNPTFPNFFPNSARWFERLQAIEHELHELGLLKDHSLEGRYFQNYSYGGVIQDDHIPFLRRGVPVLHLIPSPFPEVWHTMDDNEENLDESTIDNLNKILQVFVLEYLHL

The IC50 is the midpoint of a concentration-inhibition curve. What is called efflux ratio is a quotient of directional permeabilities that is used to spot active efflux. As usually defined, the Papp A→B is how fast a substance crosses the layer from the apical side. Higher therefore signals ready permeation. Consider `Cn1cnnc1C1(F)CCN(c2c(C#N)ccnc2-c2ccnnc2)CC1` [Example 22], for which the IC50 in data set [1] came out at 103 nM; on QPCT, 12 nM; on QPCTL, 3 nM; in data set [3], 653 nM. Further, the efflux ratio in data set [2] came to 10. Moreover, in data set [2], the apical-to-basolateral permeability (Papp A→B) came to 0.2 ×10⁻⁶ cm/s.

On to `Cn1cnnc1C1(F)CCN(c2c(C#N)ccnc2-c2cnc(F)c(OC3CC3)c2)CC1` [Example 27], for which the half-maximal inhibitory concentration (IC50) is 39 nM in data set [1], 5 nM at QPCT, 3 nM on QPCTL and 176 nM in data set [3]. In addition, the efflux ratio in data set [2] was 2. The apical-to-basolateral permeability (Papp A→B) in data set [2] stood at 36 ×10⁻⁶ cm/s.

As to `Cn1cnnc1C1(F)CCN(c2c(C#N)ccnc2-c2cnc3nn(C4(C(F)(F)F)CC4)cc3c2)CC1` [Example 30], the IC50 was 47 nM in data set [1], 2 nM at QPCT, 2 nM at QPCTL and 87 nM in data set [3]. Also, the efflux ratio in data set [2] was found to be 54.9. In data set [2], this compound had a Papp A→B of 0.5 ×10⁻⁶ cm/s.

As for `Cn1cnnc1C1(F)CCN(c2c(C#N)ccnc2-c2cnc3nn(C4(C)CC(F)(F)C4)cc3c2)CC1` [Example 31], the half-inhibitory concentration (IC50) was found to be 21 nM in data set [1], 3 nM on QPCT, 2 nM at QPCTL and 179 nM in data set [3]. The efflux ratio in data set [2] came out at 27.6. Besides, the apparent permeability from apical to basolateral (Papp A→B) in data set [2] is 1.7 ×10⁻⁶ cm/s.

Turning to `Cn1cnnc1C1(F)CCN(c2c(C#N)ccnc2-c2cnc3nn(C(C)(C)c4ccc(F)cc4)cc3c2)CC1` [Example 32], the half-inhibitory concentration (IC50) in data set [1] stood at 3 nM; on QPCT it was 1 nM; on QPCTL, 1 nM; in data set [3], 6 nM. In addition, the efflux ratio in data set [2] came to 12.6. This compound showed a Papp A→B in data set [2] of 3.5 ×10⁻⁶ cm/s.
